Experiments:
[1] = method code SF-C, from DOI: 10.1021/ja00901a033
[2] = method code SF-C, from DOI: 10.1038/194178b0
[3] = not given; remark: listed apart in the source
[4] = from Dutta, H.; Mehta, N.; SenGupta, M.; Pal, D.; Sengupta, C.; De, A. (1988). Dioxanide furoate: studies on its interaction with blood phospholipid in relation to partition coefficients of related drugs. …
[5] = method code SF-AS, from DOI: 10.1021/j150653a049
[6] = method code SF-AS, from DOI: 10.1021/jm00284a014, PMID: 5544400
[7] = method code SF-AS, from DOI: 10.1111/1523-1747.ep12263302, PMID: 6470515
[8] = not given; remark: listed apart in the source
[9] = method code SF, from DOI: 10.1002/1522-2675(20001004)83:10<2836::aid-hlca2836>3.0.co;2-g; conditions: pH 12.5
[10] = method code SF-AS, from DOI: 10.1248/cpb.32.2380
[11] = method code SF, from DOI: 10.1016/j.bmcl.2006.04.097, PMID: 16714112
[12] = method code SF-AS, from DOI: 10.1002/jhet.5570150704
[13] = not given; remark: listed apart in the source
[14] = method code SF-AS, from DOI: 10.1021/bi00730a008, PMID: 4688860
[15] = method code SF-AS, from DOI: 10.1016/0005-2728(86)90252-5, PMID: 3015209; conditions: pH 7.2
[16] = not given; remark: listed apart in the source
[17] = from Kurihara, N.; Yamakawa, K.; Fujita, T.; Nakajima, M. (1980). Studies on BHC isomers and related compounds. XXVI. Anaerobic degradation of tetra-, penta- and hexachlorocyclohexane isomers by rat liver …
[18] = not given; remark: listed apart in the source
[19] = method code SF-GLC, from PMID: 6629728; conditions: pH 7.4
[20] = method code SF, from DOI: 10.1248/yakushi1947.96.10_1169, PMID: 1033993; conditions: pH 0.7
[21] = method code SF-HPLC, from PMID: 3799213; conditions: pH 4.0
[22] = method code SF-GLC, from DOI: 10.1016/0378-4274(86)90173-6, PMID: 3952768
[23] = not given; remark: listed apart in the source
[24] = method code SF-AS, from DOI: 10.1007/s001289900104, PMID: 8661852
[25] = method code SF-RC, from DOI: 10.1021/es60170a013

c1ccc2c(c1)CCCN2
logP: 2.29

O=C(O)COc1ccc(I)cc1
logP [1]: 2.69

O=C(O)COc1cccc(Br)c1
logP [2]: 2.4

CCCC(C)C(=O)O (stereo not drawn)
logP [3]: 1.8

CC(=O)Oc1ccc(N(C)C(=O)C(Cl)Cl)cc1
logP [4]: 1.56

OCc1cc(Br)ccc1O
logP [5]: 1.72

CCCN1CCCN(CCC)C1=S
logP [6]: 2.83

Nc1ccc(Cl)c(N)c1
logP [7]: 0.85

N#Cc1c(Cl)cccc1Cl
logP [8]: 2.65

CNCCc1ccccc1
logD [9]: 1.68

CN1C(CSCC(F)(F)F)Nc2cc(Cl)c(S(N)(=O)=O)cc2S1(=O)=O (stereo not drawn)
logP [10]: 1.9

Cc1cccc(C)c1C1=NCCO1
logP [11]: 2.21

Cc1noc(-c2ccccn2)n1
logP [12]: 0.89

C1=C\CC/C=C\CC/1
logP [8]: 3.16

NS(=O)(=O)c1cc2c(cc1C(F)(F)F)NCNS2(=O)=O
logP [10]: 0.36

Cc1ncn(-c2ccc(Cl)cc2)c(=O)c1C(=O)O
logP [13]: 2.26

O=CNc1cccc(Cl)c1
logP [14]: 1.9

Cc1cc([N+](=O)[O-])ccc1NN=C(C#N)C#N
logD [15]: 1.85

COc1cc(N)cc(OC)c1
logP [16]: 0.99

N#CC(C#N)=NNc1c(Cl)cccc1Cl
logD [15]: 2.01

ClC1=C(Cl)C(Cl)C(Cl)C(Cl)C1Cl (stereo not drawn)
logP [17]: 4.31

O=C(O)CONC(=O)c1c(Cl)cccc1Cl
logP [13]: 0.83

NC(=O)c1cccnc1
logP [18]: -0.34

C1COC2CC2C1 (stereo not drawn)
logD [19]: 1.26

NS(=O)(=O)c1cc2c(cc1Cl)N=CNS2(=O)=O
logP [10]: -0.1

C1CC2OC2CC1C1CO1 (stereo not drawn)
logD [19]: 0.44

CN(C(=O)C(Cl)Cl)c1ccc(O)cc1
logP [4]: 1.78

ClC1C=CC(Cl)C(Cl)C1Cl (stereo not drawn)
logP [17]: 3.08

CCC1C(=O)NC(=O)NC1=O
logD [20]: -0.35

CCOC(=O)OCn1c(=O)[nH]cc(F)c1=O
logD [21]: 0.15

CCCCCCCCCC(C)=O
logP [22]: 4.09

CCCNC(=O)c1cccnc1
logP [18]: 0.66

Cc1ccc(CN)cc1
logD [9]: 1.58

COc1ccc(S(N)(=O)=O)cc1
logP [23]: 0.48

O=C(O)COc1ccc(Cl)cc1
logP [2]: 2.23

C=CC1CCC2OC2C1 (stereo not drawn)
logD [19]: 2.08

N#Cc1ccc(OCC(=O)O)cc1
logP [1]: 1.11

Nc1cc(Cl)cc(Cl)c1
logP [16]: 2.6

CCNC(=O)c1cccnc1
logP [18]: 0.31

CC(=O)CCC(C)C
logP [22]: 1.88

CC(=O)c1ccc(NC=O)cc1
logP [14]: 0.94

FC(F)(F)c1ccccc1C1=NCCO1
logP [11]: 2.15

CNc1ccc(C)cc1
logP: 2.15

CCCCC(CCC)C(=O)O (stereo not drawn)
logP [3]: 3.01

O=[N+]([O-])c1c(Cl)nc(-c2ncncn2)nc1Cl
logP [24]: 2.29

C=CCC1(CC)C(=O)NC(=O)N(C)C1=O (stereo not drawn)
logD [20]: 1.35

COc1ccc(Cl)cc1
logP [25]: 2.78

O=c1[nH]c2ccccc2[nH]1
logP [6]: 1.12

Reference: the SangsterLogP compilation
